Measured values reported in the NIST ThermoML archive (doi:10.1021/je300175w).
Several values for one entry are separate records, joined by “and”; a condition that tells them apart may be missing. Identical values can stand only once.

Experiment: mn = molality of the nth substance listed, in mol/kg
Settings: 101 kPa, Liquid; for speed of sound: Sing-around technique in a fixed-path interferometer; for mass density: Vibrating tube method

CC(CO)(CO)CO [1,1,1-trimethylolethane] + O
speed of sound
Settings	278.15 K	283.15 K	288.15 K	293.15 K	298.15 K	308.15 K	318.15 K
m1 = 0.09995	1433.9 m/s and 1433.8 m/s	1454.4 m/s	1472.6 m/s	1488.5 m/s	1502.4 m/s and 1502.5 m/s	1525 m/s	1540.9 m/s
m1 = 0.1985	1441.3 m/s	1461.3 m/s	1479 m/s	1494.5 m/s	1508 m/s and 1508.1 m/s	1529.9 m/s	1545.2 m/s and 1545.5 m/s
m1 = 0.291	1448.2 m/s	1467.7 m/s	1484.9 m/s	1500.1 m/s	1513.2 m/s	1534.4 m/s and 1534.7 m/s	1549.1 m/s and 1549 m/s
m1 = 0.3923	1455.6 m/s	1474.6 m/s	1491.3 m/s and 1491.4 m/s	1506.1 m/s	1518.8 m/s	1539.3 m/s and 1539.6 m/s	1553.3 m/s and 1553.2 m/s
m1 = 0.4962	1463.1 m/s	1481.5 m/s and 1481.6 m/s	1497.8 m/s	1512.1 m/s	1524.4 m/s and 1524.5 m/s	1544.2 m/s and 1544.5 m/s	1557.6 m/s and 1557.4 m/s
m1 = 0.6042	1470.7 m/s	1488.6 m/s	1504.4 m/s	1518.2 m/s	1530.1 m/s and 1530.2 m/s	1549.2 m/s and 1548.9 m/s	1561.9 m/s and 1561.7 m/s

OCC(CO)(CO)CO [2,2-bis(hydroxymethyl)-1,3-propanediol] + O
Settings	mass density	speed of sound
273.15 K, m1 = 0.1002	1003.54 kg/m3 and 1003.55 kg/m3	–
273.15 K, m1 = 0.1501	1005.3 kg/m3 and 1005.29 kg/m3	–
273.15 K, m1 = 0.2001	1007.05 kg/m3 and 1007.04 kg/m3	–
273.15 K, m1 = 0.2503	1008.77 kg/m3	–
273.15 K, m1 = 0.3005	1010.48 kg/m3	–
273.15 K, m1 = 0.35	1012.15 kg/m3 and 1012.16 kg/m3	–
278.15 K, m1 = 0.1002	–	1432.6 m/s and 1432.7 m/s
278.15 K, m1 = 0.1501	–	1435.8 m/s
278.15 K, m1 = 0.2001	–	1439 m/s
278.15 K, m1 = 0.2503	–	1442.1 m/s and 1442.2 m/s
278.15 K, m1 = 0.3005	–	1445.3 m/s
278.15 K, m1 = 0.35	–	1448.3 m/s and 1448.4 m/s
283.15 K, m1 = 0.1002	1003.23 kg/m3	1453.3 m/s
283.15 K, m1 = 0.1501	1004.96 kg/m3	1456.2 m/s and 1456.3 m/s
283.15 K, m1 = 0.2001	1006.68 kg/m3 and 1006.69 kg/m3	1459.2 m/s
283.15 K, m1 = 0.2503	1008.38 kg/m3 and 1008.39 kg/m3	1462.2 m/s
283.15 K, m1 = 0.3005	1010.07 kg/m3 and 1010.08 kg/m3	1465.1 m/s
283.15 K, m1 = 0.35	1011.72 kg/m3 and 1011.73 kg/m3	1468 m/s
288.15 K, m1 = 0.1002	1002.59 kg/m3	1471.6 m/s
288.15 K, m1 = 0.1501	1004.3 kg/m3	1474.4 m/s
288.15 K, m1 = 0.2001	1006 kg/m3 and 1006.01 kg/m3	1477.2 m/s
288.15 K, m1 = 0.2503	1007.68 kg/m3 and 1007.69 kg/m3	1479.9 m/s
288.15 K, m1 = 0.3005	1009.35 kg/m3 and 1009.36 kg/m3	1482.6 m/s and 1482.7 m/s
288.15 K, m1 = 0.35	1010.98 kg/m3 and 1010.99 kg/m3	1485.3 m/s and 1485.4 m/s
293.15 K, m1 = 0.1002	1001.66 kg/m3	1487.7 m/s
293.15 K, m1 = 0.1501	1003.35 kg/m3	1490.3 m/s
293.15 K, m1 = 0.2001	1005.04 kg/m3 and 1005.03 kg/m3	1492.9 m/s and 1492.8 m/s
293.15 K, m1 = 0.2503	1006.7 kg/m3 and 1006.71 kg/m3	1495.5 m/s
293.15 K, m1 = 0.3005	1008.35 kg/m3	1498 m/s and 1498.1 m/s
293.15 K, m1 = 0.35	1009.97 kg/m3	1500.6 m/s
298.15 K, m1 = 0.1002	1000.47 kg/m3	1501.7 m/s
298.15 K, m1 = 0.1501	1002.14 kg/m3 and 1002.15 kg/m3	1504.1 m/s and 1504.2 m/s
298.15 K, m1 = 0.2001	1003.82 kg/m3	1506.6 m/s
298.15 K, m1 = 0.2503	1005.47 kg/m3	1509 m/s and 1509.1 m/s
298.15 K, m1 = 0.3005	1007.1 kg/m3 and 1007.11 kg/m3	1511.5 m/s
298.15 K, m1 = 0.35	1008.7 kg/m3 and 1008.71 kg/m3	1513.9 m/s
303.15 K, m1 = 0.1002	999.044 kg/m3 and 999.045 kg/m3	1513.8 m/s
303.15 K, m1 = 0.1501	1000.71 kg/m3	1516.2 m/s
303.15 K, m1 = 0.2001	1002.36 kg/m3 and 1002.37 kg/m3	1518.5 m/s
303.15 K, m1 = 0.2503	1004 kg/m3	1520.8 m/s
303.15 K, m1 = 0.3005	1005.62 kg/m3	1523.1 m/s and 1523 m/s
303.15 K, m1 = 0.35	1007.22 kg/m3 and 1007.21 kg/m3	1525.3 m/s
308.15 K, m1 = 0.1002	997.404 kg/m3 and 997.402 kg/m3	1524.3 m/s
308.15 K, m1 = 0.1501	999.052 kg/m3 and 999.053 kg/m3	1526.5 m/s and 1526.4 m/s
308.15 K, m1 = 0.2001	1000.7 kg/m3	1528.6 m/s
308.15 K, m1 = 0.2503	1002.33 kg/m3	1530.8 m/s
308.15 K, m1 = 0.3005	1003.93 kg/m3 and 1003.94 kg/m3	1533 m/s and 1532.9 m/s
308.15 K, m1 = 0.35	1005.51 kg/m3 and 1005.52 kg/m3	1535.1 m/s and 1535 m/s
318.15 K, m1 = 0.1002	993.545 kg/m3 and 993.543 kg/m3	1540.4 m/s
318.15 K, m1 = 0.1501	995.176 kg/m3 and 995.177 kg/m3	1542.3 m/s and 1542.4 m/s
318.15 K, m1 = 0.2001	996.806 kg/m3 and 996.808 kg/m3	1544.2 m/s and 1544.3 m/s
318.15 K, m1 = 0.2503	998.41 kg/m3 and 998.412 kg/m3	1546.2 m/s and 1546.3 m/s
318.15 K, m1 = 0.3005	1000 kg/m3	1548.1 m/s and 1548.2 m/s
318.15 K, m1 = 0.35	1001.56 kg/m3	1549.9 m/s and 1550 m/s and 1550.1 m/s
